This data set is described as follows: Dose escalation (3+3+3): dose-limiting toxicity and maximum tolerated dose. It counts as in vivo, human. The conditions noted are these: once daily, seven days of a 21-day cycle. The procedure:
Trametinib, 2 mg once daily (both Arms), and dabrafenib, 150 mg twice daily (Arm 1 only), were subsequently started on day 8, cycle 1 (Fig. 1). Treatment was administered continuously in consecutive treatment cycles until disease progression, intolerability, or withdrawal of consent.
We defined the dose-limiting toxicity (DLT) period as the first 28 days of each dose-escalation cohort’s treatment cycle (DLT window). […] Non-hematologic DLTs included grade ≥3 nausea, vomiting, or diarrhea enduring >48 hours despite standard medical management, grade 3 fatigue persisting >7 days or grade 4 fatigue, any grade ≥3 metabolic laboratory abnormalities that are not controlled within 48 hours by standard medical management.

With `CC(C)[C@@H](CS(=O)(=O)C(C)C)N1C(=O)[C@@](C)(CC(=O)O)C[C@H](c2cccc(Cl)c2)[C@H]1c1ccc(Cl)cc1` [AMG 232], the “MTD of AMG 232 combined with dabrafenib plus trametinib” value (Arm 1) is recorded as 120 mg. Further, the “MTD of AMG 232 combined with trametinib” value (Arm 2) is 120 mg.

The values are drawn from PMC9395504 (Investigational New Drugs, 2022).
